# Assay results: ChEMBL document CHEMBL5634185, “Drymariamides A-J, Antiadipogenic Cyclopeptides Incorporating Noncanonical Amino Acids from Drymaria cordata” (J Nat Prod, 2024)
# Activity calls are given as the source filed them. No cut-off for these calls is given here. Starred links: 1 amine or outer side, 2 acyl side, 3 side chain; linkers in the order of their positions; H or OH if unused. Non-standard residues stand in square brackets, D forms with d. Residues, ends and D or L forms follow the SMILES beside them. X1 = C[C@@]12Nc3ccccc3[C@]1(O)C[C@@H](C(=O)[*:2])N2[*:1]; Kyn = Nc1ccccc1C(=O)C[C@H](N)C(=O)O
# How the values were obtained:
# 3T3-L1 [1] = assay: Anti-adipogenic activity against mouse 3T3-L1 cells assessed as decrease in triglyceride level at 1 to 100 uM by Oil Red O staining based analysis; assay type: functional, cell-based; settings: dose 1-100 µM
# 3T3-L1 [2] = assay: Cytotoxicity against mouse 3T3-L1 cells assessed as cell viability incubated for 48 hrs by MTT assay; assay type: toxicity, cell-based; settings: 3t3-l1, 48 h
# 3T3-L1 [3] = assay: Anti-adipogenic activity against mouse 3T3-L1 cells assessed as decrease in triglyceride level by Oil Red O staining based analysis; assay type: functional, cell-based
SMILES,Activity (3T3-L1 [1]),Activity (3T3-L1 [2]),EC50 (3T3-L1 [3]) [µM]
CC(C)C[C@@H]1NC(=O)[C@@H]2CCCN2C(=O)[C@H](Cc2ccccc2)NC(=O)[C@@H]2CCCN2C(=O)[C@H](C)NC(=O)[C@@H]2CCCN2C(=O)[C@H](Cc2ccc(O)cc2)NC1=O (cyclo(APFPLYP)),Active,Non-Toxic,
CC(C)C[C@@H]1NC(=O)[C@@H]2CCCN2C(=O)[C@H](Cc2ccccc2)NC(=O)[C@@H]2CCCN2C(=O)[C@H](C)NC(=O)[C@H](Cc2ccc(O)cc2)NC(=O)[C@@H]2CCCN2C(=O)[C@H](Cc2ccc(O)cc2)NC1=O (cyclo(APFPLYPY)),Active,Non-Toxic,
CC[C@H](C)[C@@H]1NC(=O)[C@H](Cc2c[nH]c3ccccc23)NC(=O)[C@@H]2CCCN2C(=O)CNC(=O)[C@H](Cc2ccc(O)cc2)NC(=O)CNC(=O)[C@H](C(C)C)NC(=O)[C@H](C)NC1=O (cyclo(AVGYGPWI)),Active,Non-Toxic,
CC(C)C[C@@H]1NC(=O)[C@H](Cc2ccc(O)cc2)NC(=O)[C@@H]2CCCN2C(=O)[C@H](Cc2ccccc2)NC(=O)CNC(=O)[C@@H]2CCCN2C1=O (cyclo(FPYLPG)),Active,Non-Toxic,1.17
O=C1CNC(=O)[C@@H]2CCCN2C(=O)[C@H](Cc2c[nH]c3ccccc23)NC(=O)[C@H](Cc2ccc(O)cc2)NC(=O)[C@@H]2CCCN2C(=O)[C@H](Cc2ccccc2)N1 (cyclo(FPYWPG)),Active,Non-Toxic,
Nc1ccccc1C(=O)C[C@@H]1NC(=O)[C@H](Cc2ccc(O)cc2)NC(=O)[C@@H]2CCCN2C(=O)[C@H](Cc2ccccc2)NC(=O)CNC(=O)[C@@H]2CCCN2C1=O (cyclo(FPY[Kyn]PG)),Active,Non-Toxic,
C[C@@]12Nc3ccccc3[C@]1(O)C[C@H]1C(=O)N3CCC[C@H]3C(=O)NCC(=O)N[C@@H](Cc3ccccc3)C(=O)N3CCC[C@H]3C(=O)N[C@@H](Cc3ccc(O)cc3)C(=O)N12 (cyclo(FPY[X1]PG)),Active,Non-Toxic,
O=C1CNC(=O)[C@@H]2CCCN2C(=O)[C@H](Cc2c[nH]c3ccccc23)NC(=O)[C@H](Cc2ccc(O)cc2)NC(=O)[C@@H]2CCCN2C(=O)CN1 (cyclo(GGPYWP)),Active,Non-Toxic,
CC(C)C[C@@H]1NC(=O)[C@H](CO)NC(=O)[C@@H]2CCCN2C(=O)[C@H](CC(C)C)NC(=O)[C@@H]2CCCN2C(=O)[C@H](CO)NC(=O)CNC(=O)[C@H](Cc2c[nH]c3ccccc23)NC1=O (cyclo(GSPLPSLW)),Active,Non-Toxic,
CC(C)C[C@@H]1NC(=O)[C@@H]2CCCN2C(=O)[C@H](CO)NC(=O)CNC(=O)[C@@H]2C[C@@]3(O)c4ccccc4N[C@@]3(C)N2C(=O)[C@H](CC(C)C)NC(=O)[C@H](CO)NC(=O)[C@@H]2CCCN2C1=O (cyclo(GSPLPSL[X1])),Active,Non-Toxic,
